Results on 12 compounds are retold here after patent US4005096A, “Therapeutically active phenoxyalkylamines” (Biersdorf Aktiengesellschaft, priority 1973, dated 1977).

Data set [1] has as its system rats having artificially promoted high blood pressure (according to Goldblatt). Briefly: blood pressure reduction in rats having artificially promoted high blood pressure (according to Goldblatt), plethysmographic at base of tail. The class given is in vivo. Conditions: Rattus norvegicus, single dose; for change in vivo at 20 mg/kg: 20 mg/kg p.o. The procedure:
To show the blood pressure reducing properties of typical compounds according to the invention, products of the Examples were administered, to rats having artificially promoted high blood pressure (according to Goldblatt), in the form of solution either by injection under the skin of the back (subcutaneously) or by means of a stomach tube (perorally). 1,2.5 and 4 hours (and 1.75 hours in the case of Compound A) after administration of the substance the systolic and diastolic blood pressures were measured plethysmographically at the base of the tail of the rat. In the following Table I there is given for each of the individual compounds (designated A to M) the average value of the blood pressure in mm Hg before the administration of the compound, the time (determined from the measuring time) of maximum blood pressure reduction and the maximum reduction of the systolic and diastolic blood pressures expressed as a percentage of the initial value after a single administration of the dose.

Data set [2] in a line: acute toxicity (LD50 Mouse), Litchfield and Wilcoxon. Conditions: in vivo. The source says: Tests to determine the toxicity have been carried out. In each case 6 mice were given a particular dose of the compound to be tested combined with a suitable neutral diluent, administration being carried out perorally, intraveneously and/or intraperitoneally.
The statistical evaluation took place according to the method of J. F. Litchfield, Jr. and F. Wilcoxon in: "Journal of Pharmacology and Experimental Therapeutics", Volume 96 (1949), pages 99-113.
In the following Table II the toxicity of Compounds A to M are given.

Setting [3] is: sc, 10 mg/kg s.c., at the time given in the same line, read-out: Maximum blood pressure reduction, diastolic (percent of initial value).
The mark [4] stands for this setting: sc, 10 mg/kg s.c., at the time given in the same line, read-out: Maximum blood pressure reduction, systolic (percent of initial value).

Structures can show the parent of a compound that is named as a salt. Where two headings read alike, the source gives them in different places.

By LD50 is commonly meant the dose expected to kill half of the subjects tested. A lower LD50 goes with a more toxic substance. For `COc1ccccc1OCCNCCc1ccncc1` [Compound A, N-[4-Pyridyl-ethyl(2)]-o-methoxy-phenoxyethylamine.2 HCl], the change in vivo at 20 mg/kg in data set [1] (po, read-out: Maximum blood pressure reduction, diastolic (percent of initial value)) was -32%; in data set [1] (po, read-out: Maximum blood pressure reduction, systolic (percent of initial value)), -28%. The change in vivo at 10 mg/kg is -34% in data set [1] (setting [3]) and -25% in data set [1] (setting [4]). In addition, the LD50 in data set [2] (ip) is 150 mg/kg; in data set [2] (iv), 53.5 mg/kg; in data set [2] (po), 290 mg/kg.
Turning to `COc1ccccc1OCCNCCc1ccccn1` [Compound B, N-[2-Pyridyl-ethyl(2)]-o-methoxy-phenoxyethylamine . 2 HCl], the change in vivo at 10 mg/kg in data set [1] (setting [3]) is -23%; in data set [1] (setting [4]) it was -20%. Also, the LD50 in data set [2] (ip) was determined as 150 mg/kg; in data set [2] (iv), 31.5 mg/kg.
As to `COc1ccccc1OCCNCc1cccnc1` [Compound C, N-(3-Pyridyl-methyl)-o-methoxy-phenoxyethylamine .2 HCl], the change in vivo at 10 mg/kg in data set [1] (setting [3]) is -16%; in data set [1] (setting [4]), -15%. The LD50 in data set [2] (ip) was determined as 150 mg/kg; in data set [2] (iv), 73.3 mg/kg; in data set [2] (po), 390 mg/kg.
As to `COc1ccccc1OCCNCc1ccccn1` [Compound D, N-(2-Pyridyl-methyl)-o-methoxy-phenoxyethylamine. 2 HCl], the change in vivo at 10 mg/kg was -25% in data set [1] (setting [3]) and -22% in data set [1] (setting [4]). The LD50 in data set [2] (ip) came out at 150 mg/kg; in data set [2] (iv), 51 mg/kg; in data set [2] (po) it was 750 mg/kg.
On to `COc1ccccc1OCCNCc1ccncc1` [Compound E, N-(4-Pyridyl-methyl)-o-methoxy-phenoxyethylamine . 2 HCl], for which the change in vivo at 10 mg/kg in data set [1] (po, 10 mg/kg p.o., read-out: Maximum blood pressure reduction, diastolic (percent of initial value)) is -22%; in data set [1] (po, 10 mg/kg p.o., read-out: Maximum blood pressure reduction, systolic (percent of initial value)), -20%; in data set [1] (setting [3]) it was -18%; in data set [1] (setting [4]), -15%. For the same compound, the figures for the LD50 in data set [2] (ip), in data set [2] (iv) and in data set [2] (po) were 364 mg/kg, 90.1 mg/kg and 730 mg/kg, respectively.
`Clc1ccccc1OCCCNCCc1ccncc1` [Compound F, N-[4-Pyridyl-ethyl(2)]-o-chloro-phenoxypropylamine dioxalate dihydrate]: the LD50 in data set [2] (ip) was over 800 mg/kg.
As to `Clc1ccccc1OCCNCCc1ccncc1` [Compound G, N-[4-Pyridyl-ethyl(2)]-o-chloro-phenoxyethylamine dioxalate dihydrate], the values for the LD50 in data set [2] (ip) and in data set [2] (iv) were about 200 mg/kg and 71.7 mg/kg, respectively.
Consider `Cc1cccnc1CNCCOc1ccccc1Cl` [Compound H, N-[(3-Methyl-2-pyridyl)-methyl]-o-chloro-phenoxyethylamineoxalate hydrate], for which the change in vivo at 10 mg/kg in data set [1] (setting [3]) and in data set [1] (setting [4]) was -16% in each case. For the same compound, the values for the LD50 in data set [2] (ip) and in data set [2] (iv) were 220 mg/kg and 50 mg/kg, respectively.
On to `Cc1cccnc1CNCCOc1ccccc1C#N` [Compound J, N-[(3-Methyl-2-pyridyl)-methyl]-o-cyano-phenoxyethylamineoxalate hydrate], for which the values for the change in vivo at 10 mg/kg in data set [1] (setting [3]) and in data set [1] (setting [4]) were -12% and -11%, respectively. The LD50 in data set [2] (iv) was 73.3 mg/kg; in data set [2] (po), 660 mg/kg.
Consider `Clc1ccccc1OCCCCNCCc1ccncc1` [Compound K, N-[4-Pyridyl-ethyl(2)]-o-chloro-phenoxybutylamine dioxalate monohydrate], for which the values for the change in vivo at 10 mg/kg in data set [1] (setting [3]) and in data set [1] (setting [4]) were -19% and -15%, respectively. Moreover, the LD50 was 182 mg/kg in data set [2] (ip) and 235 mg/kg in data set [2] (po).
Take `N#Cc1ccccc1OCCNCCc1ccncc1` [Compound L, N-[4-Pyridyl-ethyl(2)]-o-cyano-phenoxyethylamine dioxalate hydrate]: the results for the change in vivo at 10 mg/kg in data set [1] (setting [3]) and in data set [1] (setting [4]) were -19% and -17%, respectively. Also, the LD50 in data set [2] (ip) turned out to be 91 mg/kg; in data set [2] (po), 245 mg/kg.
`COc1ccccc1OCCNCc1ncccc1O.Cl.Cl` [Compound M, N-[(3-Hydroxy-2-pyridyl)-methyl]-o-methoxy-phenoxyethylamine dihydrochloride]: the change in vivo at 10 mg/kg in data set [1] (setting [3]) is -12%; in data set [1] (setting [4]), -11%. This compound also came in with an LD50 in data set [2] (iv) of 55.6 mg/kg.
